Experimental findings from patent publication US9593139B2, “Compositions, methods, and kits comprising platinum compounds associated with a ligand comprising a targeting moiety” (priority 2013, dated 2017) are described below.

One experiment concerns A2780 cells. Description: MTT cytotoxicity assay, cisplatin-sensitive ovarian cancer cell line. To be noted: 72 h incubation. The experiment is classed as cell-based. The protocol:
(§1) A2780 and A2780CP70 (ovarian cisplatin-sensitive and -resistant) cell lines were obtained from Fox Chase Cancer Center and cultured in RPMI-1640 medium supplemented with 10% fetal bovine serum (FBS) and 1% penicillin/streptomycin.
(§2) The colorimetric MTT assay was used to assess cytotoxicity. In a 96-well plate, 2000 cells per well were seeded in 100 μL growth medium and allowed to attach overnight. The growth media was then aspirated and replaced with 100 μL of growth medium containing varying concentrations of the platinum complexes. Six wells were used per concentration level. After 72 h, the platinum-containing media was aspirated and replaced with 200 μL of RPMI-1640 containing 0.67 mg/mL MTT. The cells were further incubated for 4 h. The MTT solution was removed, and the resulting purple formazan crystals were dissolved in 100 μL of 25:1 mixture of DMSO and aqueous ammonia. The absorbance was measured at 550 nm. The absorbance values were normalized to the Pt-free wells (100% cell viability) and are plotted versus platinum concentration. […] These experiments were repeated at least three times, and the reported IC50 values are the averages of these trials with the error estimated from the resulting standard deviations.
A general note: Tetrazolium assays rely on reduction of a dye to a coloured formazan, in cell work by metabolically active cells.

The next experiment has as its system A2780CP70 cells. Description: MTT cytotoxicity assay, cisplatin-resistant ovarian cancer cell line. It counts as cell-based. The following applies: for IC50: A2780CP70 (cisplatin-resistant), MTT, 72 h incubation; for R.F. (resistance factor, IC50(resistant)/IC50(sensitive)): A2780CP70 vs A2780, 72 h incubation. As for the experimental part:
as §1, §2

For orientation: IC50 means the point on the concentration scale where inhibition reaches its midpoint. A high value points to weaker potency. In the experiment with A2780 cells, “[Pt(succac)(NH3)2]-r(Fxr)3-CONH2 [Pt-MPP]” gave an IC50 of 7.5 ± 0.3 µM. Further, in the experiment on A2780CP70 cells, the 50% inhibitory concentration (IC50) came out at 5 ± 1.4 µM and the “R.F. (resistance factor, IC50(resistant)/IC50(sensitive))” value turned out to be 0.7±0.2.

Consider `O=C1[O][Pt-2]2([NH2+]C3CCCC[C@H]3[NH2+]2)[O]C1=O` (stereo partly drawn) [Oxaliplatin, (R,R-1,2-diaminocyclohexane)oxalatoplatinum(II)], for which, in the experiment on A2780 cells, the IC50 stood at 0.25 µM. For the same compound, in the experiment on A2780CP70 cells, half-maximal inhibition (IC50) was put at 1 µM and the “R.F. (resistance factor, IC50(resistant)/IC50(sensitive))” value worked out at 4.1 ± 0.4.

In turn, `N.N.[Cl][Pt][Cl]` [cisplatin, cis-diamminedichloroplatinum(II)] showed a half-maximal inhibitory concentration (IC50) with A2780 cells of 0.6 ± 0.08 µM. Also, in the experiment on A2780CP70 cells, the IC50 came to 5.2 ± 1.4 µM and the “R.F. (resistance factor, IC50(resistant)/IC50(sensitive))” value was determined as 8.7 ± 2.6.

For [Pt(acac)(NH3)2](SO4)0.5, in the experiment with A2780 cells, 13.9 ± 1.9 µM corresponded to half-maximal inhibition (IC50). Further, in the experiment on A2780CP70 cells, it took 122 ± 10 µM to reach half-maximal inhibition (IC50) and the “R.F. (resistance factor, IC50(resistant)/IC50(sensitive))” value is given as 8.8 ± 1.4.
